From the NIST ThermoML archive (doi:10.1016/j.fluid.2014.02.006) come the findings set out here.

± gives the expanded uncertainty stated by the source.

Series [1] in a line: refractive index (Na D-line) (dimensionless). To be noted: 298.15 K; 101.33 kPa; Liquid; Standard Abbe refractometry.
For series [2] the following is noted: 298.15 K; 101.33 kPa; Liquid; Vibrating tube method.

For the compound `O` [water], the refractive index in series [1] is given as 1.33237 ± 0.00032. Regarding `CC(C)O` [propan-2-ol], the mass density in series [2] turned out to be 781.18 ± 0.15 kg/m3. Also, in series [1], the refractive index turned out to be 1.3752 ± 0.00032. Consider `OCCCO` [propan-1,3-diol], for which the mass density in series [2] stood at 1049.68 ± 0.14 kg/m3. Besides, the refractive index in series [1] is reported as 1.43851 ± 0.00032.
